This assay deals with Histone-lysine N-methyltransferase, H3 lysine-79 specific (Homo sapiens, UniProt Q8TEK3). Nature of the assay: Enzyme Assay. The protocol:
Assay of DOT1L enzymatic activity were performed under balanced conditions using a radiometric assay.

Histone-lysine N-methyltransferase, H3 lysine-79 specific, sequence (Q8TEK3 whole entry): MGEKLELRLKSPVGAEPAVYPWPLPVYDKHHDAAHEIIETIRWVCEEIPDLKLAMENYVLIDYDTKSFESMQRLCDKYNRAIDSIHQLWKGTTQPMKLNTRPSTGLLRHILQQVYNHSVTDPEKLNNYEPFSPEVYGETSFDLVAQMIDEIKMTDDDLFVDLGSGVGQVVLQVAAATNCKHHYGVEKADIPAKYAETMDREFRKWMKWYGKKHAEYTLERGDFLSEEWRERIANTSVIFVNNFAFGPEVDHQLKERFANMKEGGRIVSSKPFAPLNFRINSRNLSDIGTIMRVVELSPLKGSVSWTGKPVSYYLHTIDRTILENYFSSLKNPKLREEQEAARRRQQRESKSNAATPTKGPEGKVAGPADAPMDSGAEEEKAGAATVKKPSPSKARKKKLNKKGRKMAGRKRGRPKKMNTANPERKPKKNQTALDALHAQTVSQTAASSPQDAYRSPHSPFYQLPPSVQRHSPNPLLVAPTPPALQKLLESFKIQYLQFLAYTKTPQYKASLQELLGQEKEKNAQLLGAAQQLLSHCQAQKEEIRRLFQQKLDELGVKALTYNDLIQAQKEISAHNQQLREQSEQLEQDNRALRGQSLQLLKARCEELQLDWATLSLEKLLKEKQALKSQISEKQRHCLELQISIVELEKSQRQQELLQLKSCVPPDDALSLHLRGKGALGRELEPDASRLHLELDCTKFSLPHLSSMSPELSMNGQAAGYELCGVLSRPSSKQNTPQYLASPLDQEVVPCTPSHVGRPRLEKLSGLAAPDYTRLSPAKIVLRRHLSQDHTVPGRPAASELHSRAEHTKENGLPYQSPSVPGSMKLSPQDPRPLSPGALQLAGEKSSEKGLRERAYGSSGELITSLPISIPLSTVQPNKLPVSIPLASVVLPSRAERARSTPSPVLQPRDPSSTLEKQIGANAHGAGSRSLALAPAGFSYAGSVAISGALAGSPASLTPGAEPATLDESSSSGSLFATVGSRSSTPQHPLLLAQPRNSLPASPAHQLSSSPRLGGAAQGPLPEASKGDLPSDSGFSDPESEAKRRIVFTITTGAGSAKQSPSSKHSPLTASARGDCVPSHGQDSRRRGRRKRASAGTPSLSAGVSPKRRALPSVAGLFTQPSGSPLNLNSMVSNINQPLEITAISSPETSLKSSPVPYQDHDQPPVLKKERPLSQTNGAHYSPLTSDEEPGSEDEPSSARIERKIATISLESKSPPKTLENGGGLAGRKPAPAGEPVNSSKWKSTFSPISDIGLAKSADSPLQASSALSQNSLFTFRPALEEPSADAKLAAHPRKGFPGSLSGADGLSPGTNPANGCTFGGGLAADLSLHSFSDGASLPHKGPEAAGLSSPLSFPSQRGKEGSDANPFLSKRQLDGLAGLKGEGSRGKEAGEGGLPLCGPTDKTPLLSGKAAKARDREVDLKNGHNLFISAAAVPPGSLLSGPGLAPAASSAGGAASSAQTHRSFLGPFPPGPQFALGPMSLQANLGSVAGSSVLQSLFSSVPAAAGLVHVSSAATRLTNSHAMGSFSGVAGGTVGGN

`CN(CCNC(=O)Nc1ccc(C(C)(C)C)cc1)CC1OC(n2cnc3c(N)ncnc32)[C@H](O)[C@@H]1O` (some centres not stated) [EPZ003647] registered a dissociation constant Kd of 167 nM and a Ki of 845 nM.

As a reminder, the Kd is the constant that tells how readily two partners part at equilibrium. Higher therefore signals weaker binding. For orientation: Ki means the equilibrium dissociation constant of an inhibitor or competing ligand from its target. Lower therefore signals higher affinity.

Source of the values: BindingDB's records for doi:10.1111/cbdd.12050 (Epizyme, 2012).
